The molecules below were run on Cell Necrosis (assay: Cell necrosis assay / cell viability assay (necrosis inhibitor activity)). Details: not given.
Format: cell-based

Row | SMILES | EC50
1 | CN(C)CCC1Oc2cc(F)c(OC3CN(C(=O)N4N=CC[C@H]4c4cc(F)cc(F)c4)C3)cc2NC1=O (stereo partly drawn) [Compound 249, 6-((1-((S)-5-(3,5-difluorophenyl)-4,5-dihydro-1H-pyrazole-1-carbonyl)azetidin-3-yl)oxy)-2-(2-(dimethylamino)ethyl)-7-fluoro-2H-benzo[b][1,4]oxazin-3(4H)-one] | 1 to 1000 nM

Same assay, conditions: necrosis inhibitor activity; EC data for 14-191 extrapolated; read-out: EC50

Row | SMILES | EC50
2 | N#Cc1ccc(OC2CN(C(=O)N3N=CCC3c3cc(F)cc(F)c3)C2)cc1F (stereo not drawn) [Compound 137, 4-((1-(5-(3,5-difluorophenyl)-4,5-dihydro-1H-pyrazole-1-carbonyl)azetidin-3-yl)oxy)-2-fluorobenzonitrile] | 1 to 1000 nM
3 | O=C(N1CC(Cc2ccc(F)cc2)C1)N1OCC[C@H]1c1ccccc1 [Compound 79, (S)-(3-(4-fluorobenzyl)azetidin-1-yl)(3-phenylisoxazolidin-2-yl)methanone] | 1 to 1000 nM
4 | O=C(C1CC1)N1CCN(C(=O)N2N=CCC2c2ccccc2)CC1 (stereo not drawn) [Compound 93, (4-(cyclopropanecarbonyl)piperazin-1-yl)(5-phenyl-4,5-dihydro-1H-pyrazol-1-yl)methanone] | 1000 to 10000 nM
5 | NC(=O)c1cc(OC2CN(C(=O)N3N=CCC3c3cc(F)cc(F)c3)C2)ccc1Cl (stereo not drawn) [Compound 158] | 1 to 1000 nM
6 | O=C(N1CC(Cc2ccc(F)cc2)C1)N1N=CCC1c1ccccc1 (stereo not drawn) [Compound 42, (3-(4-fluorobenzyl)azetidin-1-yl)(5-phenyl-4,5-dihydro-1H-pyrazol-1-yl)methanone] | 1 to 1000 nM
7 | O=C(N1CC(=Cc2ccc3ccc(=O)[nH]c3c2)C1)N1N=CCC1c1cc(F)cc(F)c1 (stereo not drawn) [Compound 190] | 1 to 1000 nM
8 | O=C(N1CCc2ccccc2C1)N1N=CCC1c1ccccc1 (stereo not drawn) [Compound 15, (3,4-dihydroisoquinolin-2(1H)-yl)(5-phenyl-4,5-dihydro-1H-pyrazol-1-yl)methanone] | 1000 to 10000 nM
9 | CNC(=O)c1ccc(OC2CN(C(=O)N3N=CCC3c3cc(F)cc(F)c3)C2)cc1 (stereo not drawn) [Compound 165] | 1 to 1000 nM
10 | NC(=O)c1c(F)cc(OC2CN(C(=O)N3N=CCC3c3cc(F)cc(F)c3)C2)cc1F (stereo not drawn) [Compound 156] | 1 to 1000 nM
11 | O=C(N1CCN(c2ncc(Cl)cn2)CC1)N1N=CCC1c1ccccc1 (stereo not drawn) [Compound 88, (4-(5-chloropyrimidin-2-yl)piperazin-1-yl)(5-phenyl-4,5-dihydro-1H-pyrazol-1-yl)methanone] | 1 to 1000 nM
12 | Cc1ccccc1C=C1CN(C(=O)N2N=CCC2c2ccccc2)C1 (stereo not drawn) [Compound 38, (3-(2-methylbenzylidene)azetidin-1-yl)(5-phenyl-4,5-dihydro-1H-pyrazol-1-yl)methanone] | 1 to 1000 nM

Same assay, conditions: necrosis inhibitor activity; compounds outside 14-191; read-out: EC50

Row | SMILES | EC50
13 | CC1Oc2ccc(OC3CN(C(=O)N4N=CC[C@H]4c4cc(F)cc(F)c4)C3)cc2NC1=O (stereo partly drawn) [Compound 353, 6-((1-((S)-5-(3,5-difluorophenyl)-4,5-dihydro-1H-pyrazole-1-carbonyl)azetidin-3-yl)oxy)-2-methyl-2H-benzo[b][1,4]oxazin-3(4H)-one] | 1 to 1000 nM
14 | N#Cc1cc(OC2CN(C(=O)N3N=CC[C@H]3c3cc(F)cc(F)c3)C2)c(F)cc1F [Compound 238, (S)-5-((1(5-(3,5-difluorophenyl)-4,5-dihydro-1H-pyrazole-1-carbonyl)azetidin-3-yl)oxy)-2,4-difluorobenzonitrile] | 1 to 1000 nM
15 | O=C1Cc2cnc(N3CCN(C(=O)N4N=CC[C@H]4c4cc(F)cc(F)c4)CC3)nc2N1 [Compound 386, (S)-2-(4-(5-(3,5-difluorophenyl)-4,5-dihydro-1H-pyrazole-1-carbonyl)piperazin-1-yl)-5,7-dihydro-6H-pyrrolo[2,3-d]pyrimidin-6-one] | 1 to 1000 nM
16 | O=C1COc2cc(F)c(OC3CN(C(=O)N4N=CC[C@H]4c4cccc(F)c4)C3)cc2N1 [Compound 200, (S)-7-fluoro-6-((1-(5-(3-fluorophenyl)-4,5-dihydro-1H-pyrazole-1-carbonyl)azetidin-3-yl)oxy)-2H-benzo[b][1,4]oxazin-3(4H)-one] | 1 to 1000 nM
17 | N#Cc1cc(O[C@@H]2CCN(C(=O)N3N=CC[C@H]3c3cc(F)cc(F)c3)C2)ncn1 [Compound 360, 6-(((R)-1-((S)-5-(3,5-difluorophenyl)-4,5-dihydro-1H-pyrazole-1-carbonyl)pyrrolidin-3-yl)oxy)pyrimidine-4-carbonitrile] | 1 to 1000 nM
18 | O=C(N1CC(Oc2nc(NCCO)ncc2F)C1)N1N=CC[C@H]1c1cc(F)cc(F)c1 [Compound 266, (S)-(5-(3,5-difluorophenyl)-4,5-dihydro-H-pyrazol-1-yl)(3-((5-fluoro-2-((2-hydroxyethyl)amino)pyrimidin-4-yl)oxy)azetidin-1-yl)methanone] | 1 to 1000 nM
19 | CC1Oc2cc(F)c(OC3CN(C(=O)N4N=CC[C@H]4c4cc(F)cc(F)c4)C3)cc2NC1=O (stereo partly drawn) [Compound 350, 6-((1-((S)-5-(3,5-difluorophenyl)-4,5-dihydro-1H-pyrazole-1-carbonyl)azetidin-3-yl)oxy)-7-fluoro-2-methyl-2H-benzo[b][1,4]oxazin-3(4H)-one] | 1 to 1000 nM
20 | O=C(N1CC(=Cc2cc3[nH]nc(F)c3cc2F)C1)N1N=CCC1c1ccccc1 (stereo not drawn) [Compound 296, (3-((3,5-difluoro-1H-indazol-6-yl)methylene)azetidin-1-yl)(5-phenyl-4,5-dihydro-1H-pyrazol-1-yl)methanone] | 1 to 1000 nM
21 | O=C1Cc2ccc(OC3CN(C(=O)N4N=CC[C@H]4c4cc(F)cc(F)c4)C3)cc2N1 [Compound 209, (S)-6-((1-(5-(3,5-difluorophenyl)-4,5-dihydro-1H-pyrazole-1-carbonyl)azetidin-3-yl)oxy)indolin-2-one] | 1 to 1000 nM
22 | O=C(c1cc2sc(OC3CN(C(=O)N4N=CC[C@H]4c4cc(F)cc(F)c4)C3)nc2[nH]1)N1CCC1 [Compound 261, (S)-azetidin-1-yl(2-((1-(5-(3,5-difluorophenyl)-4,5-dihydro-1H-pyrazole-1-carbonyl)azetidin-3-yl)oxy)-4H-pyrrolo[2,3-d]thiazol-5-yl)methanone] | 1 to 1000 nM
23 | N#Cc1ccc(F)c(C=C2CN(C(=O)N3N=CC[C@H]3c3cc(F)cc(F)c3)C2)c1 [Compound 319, (S)-3-((1-(5-(3,5-difluorophenyl)-4,5-dihydro-1H-pyrazole-1-carbonyl)azetidin-3-ylidene)methyl)-4-fluorobenzonitrile] | 1 to 1000 nM
24 | N#Cc1cncc(C2CC=NN2C(=O)N2CC(Oc3cc4[nH]nc(F)c4cc3F)C2)c1 (stereo not drawn) [Compound 381, 5-(1-(3-((3,5-difluoro-1H-indazol-6-yl)oxy)azetidine-1-carbonyl)-4,5-dihydro-1H-pyrazol-5-yl)nicotinonitrile] | 1 to 1000 nM
25 | N#Cc1cc(O[C@@H]2CCN(C(=O)N3N=CC[C@H]3c3cc(F)cc(F)c3)C2)ccn1 [Compound 340, 4-(((R)-1-((S)-5-(3,5-difluorophenyl)-4,5-dihydro-1H-pyrazole-1-carbonyl)pyrrolidin-3-yl)oxy)picolinonitrile] | 1 to 1000 nM
26 | N#Cc1cccc([C@@H]2CC=NN2C(=O)N2CC(=Cc3cc4c(cc3F)CC(=O)N4)C2)c1 [Compound 373, (S)-3-(1-(3-((5-fluoro-2-oxoindolin-6-yl)methylene)azetidine-1-carbonyl)-4,5-dihydro-1H-pyrazol-5-yl)benzonitrile] | 1 to 1000 nM
27 | O=C(N1CC(Oc2ccc3ccc(=O)[nH]c3c2)C1)N1N=CC[C@H]1c1cc(F)cc(F)c1 [Compound 205, (S)-7-((1-(5-(3,5-difluorophenyl)-4,5-dihydro-1H-pyrazole-1-carbonyl)azetidin-3-yl)oxy)quinolin-2(1H)-one] | 1 to 1000 nM
28 | CNc1cccc(C=C2CN(C(=O)N3N=CC[C@H]3c3cc(F)cc(F)c3)C2)c1 [Compound 317, (S)-(5-(3,5-difluorophenyl)-4,5-dihydro-1H-pyrazol-1-yl)(3-(3-(methylamino)benzylidene)azetidin-1-yl)methanone] | 1 to 1000 nM
29 | O=C1Nc2cc(OC3CN(C(=O)N4N=CC[C@H]4c4cc(F)cc(F)c4)C3)c(F)cc2OC1CCO (stereo partly drawn) [Compound 246, 6-((1-((S)-5-(3,5-difluorophenyl)-4,5-dihydro-1H-pyrazole-1-carbonyl)azetidin-3-yl)oxy)-7-fluoro-2-(2-hydroxyethyl)-2H-benzo[b][1,4]oxazin-3(4H)-one] | 1 to 1000 nM
30 | N#CCCNc1ncc(F)c(OC2CN(C(=O)N3N=CC[C@H]3c3cc(F)cc(F)c3)C2)n1 [Compound 269, (S)-3-((4-((1-(5-(3,5-fluorophenyl)-4,5-dihydro-1H-pyrazole-1-carbonyl)azetidin-3-yl)oxy)-5-fluoropyrimidin-2-yl)amino)propanenitrile] | 1 to 1000 nM
31 | CN(C(=O)N1N=CCC1c1ccccc1)C1CCCCC1 (stereo not drawn) [Compound 12, N-cyclohexyl-N-methyl-5-phenyl-4,5-dihydro-1H-pyrazole-1-carboxamide] | 1000 to 10000 nM
32 | Nc1ccc(F)c(C=C2CN(C(=O)N3N=CC[C@H]3c3cc(F)cc(F)c3)C2)n1 [Compound 244] | 1 to 1000 nM
33 | NC(=O)c1nc(OC2CN(C(=O)N3N=CC[C@H]3c3cc(F)cc(F)c3)C2)sc1Cl [Compound 274, (S)-5-chloro-2-((1-(5-(3,5-difluorophenyl)-4,5-dihydro-1H-pyrazole-1-carbonyl)azetidin-3-yl)oxy)thiazole-4-carboxamide] | 1 to 1000 nM
34 | NC(=O)c1cc(OC2CN(C(=O)N3N=CC[C@H]3c3cc(F)cc(F)c3)C2)c(F)cc1F [Compound 239, (S)-5-((1-(5-(3,5-difluorophenyl)-4,5-dihydro-1H-pyrazole-1-carbonyl)azetidin-3-yl)oxy)-2,4-difluorobenzamide] | 1 to 1000 nM
35 | N#Cc1cc(F)cc([C@@H]2CC=NN2C(=O)N2CC(Oc3cc4[nH]nc(F)c4cc3F)C2)c1 [Compound 377, (S)-3-(1-(3-((3,5-difluoro-1H-indazol-6-yl)oxy)azetidine-1-carbonyl)-4,5-dihydro-1H-pyrazol-5-yl)-5-fluorobenzonitrile] | 1 to 1000 nM
36 | O=C(N1CC(Oc2ccc3ccc(=O)[nH]c3c2F)C1)N1N=CC[C@H]1c1cc(F)cc(F)c1 [Compound 208, (S)-7-((1(5-(3,5-difluorophenyl)-4,5-dihydro-1H-pyrazole-1-carbonyl)azetidin-3-yl)oxy)-8-fluoroquinolin-2(1H)-one] | 1 to 1000 nM
